Consider 32 compounds from patent US7196083B2, “Heteropolycyclic inhibitors of protein kinases” (priority 2000, dated 2007).

For series [1], the system named is A-549 (human lung carcinoma). Put plainly: [3H] thymidine uptake cell proliferation assay, A549. The format is cell-based. Particulars: A459 cells, read-out: Cell Proliferation in A459 IC50 in nm.
For series [2], the target named is PKB, full-length recombinant bovine protein, alpha form (Bos taurus, UniProt Q01314). The series is described as follows: PKB inhibition in vitro enzyme assay (radioactive phosphate incorporation, scintillation counting). The series is classed as biochemical. The settings on record: for IC50: PKB in vitro enzyme assay, 15 min at room temperature.
In series [3] the test system is SKOV-3 (human ovarian carcinoma). Put plainly: [3H] thymidine uptake cell proliferation assay, SKOV3. The series is classed as cell-based. Particulars: SK-OV-3, read-out: Cell Proliferation Effects (IC50 (nM)).
Series [4] concerns B16-F10 (murine melanoma). Put plainly: [3H] thymidine uptake cell proliferation assay, B16F10. The format is cell-based. The settings on record: Mus musculus, read-out: Cell Proliferation Effects (IC50 (nM)).
Series [5] deals with NIH-3T3 (murine embryonic fibroblasts). Put plainly: [3H] thymidine uptake cell proliferation assay, NIH3T3. The format is cell-based. Particulars: Mus musculus; NIH3T3, non-tumorigenic cell line; read-out: Cell Proliferation Effects (IC50 (nM)).
Series [6] relates to LL2 Lewis Lung human lung carcinoma. The series is described as follows: [3H] thymidine uptake cell proliferation assay, LL2. The format is cell-based. The settings on record: LL/2, read-out: Cell Proliferation Effects (IC50 (nM)).
The test system of a further series is DU-145 (human carcinoma). Put plainly: [3H] thymidine uptake cell proliferation assay, DU145. The format is cell-based. The settings on record: read-out: Cell Proliferation Effects (IC50 (nM)).
For another series, the system named is B16-F1 (murine melanoma). Put plainly: [3H] thymidine uptake cell proliferation assay, B16F1. The format is cell-based. Particulars: Mus musculus, read-out: Cell Proliferation Effects (IC50 (nM)).
Series [7] deals with HT-29 human colon carcinoma. The series is described as follows: [3H] thymidine uptake cell proliferation assay, HT29. The format is cell-based. The settings on record: read-out: Cell Proliferation Effects (IC50 (nM)).
In a further series the test system is U-87 (human glioma). Put plainly: [3H] thymidine uptake cell proliferation assay, U87. The series is classed as cell-based. As for the experimental part: Compounds were added to culture at mid-logarithmic growth and incubated for 20 hours. (N=8 for the values+standard errors). […] Cell lines A-549 (human lung carcinoma), B16-F1 (murine melanoma), B16-F10 (murine melanoma), DU-145 (human […] carcinoma), LS-180 (human colon carcinoma), PC3 (human prostate carcinoma), SKOV-3 (human ovarian carcinoma), U-87 (human glioma), and NIH-3T3 (murine embryonic fibroblasts) were all cultured in DMEM supplemented with 10% fetal bovine serum. M3 murine melanoma cells were cultured in DMEM/F12 1:1, and HT-29 human colon carcinoma and LL2 Lewis Lung […] lung carcinoma were cultured in RPMI1640. All the foregoing cell lines were obtained from ATCC. All cells were passaged regularly using 0.25% Trypsin-EDTA in order to maintain cells at exponential growth for various experiments. LS 180 cells were passaged without trypsin and were physically scraped off the culture flasks. In vitro [^3H] thymidine uptake assay. Proliferation can be measured by quantifying the amount of [^3H] thymidine uptake into cells using a β-counter, and therefore is a well-established diagnostic tool to measure DNA synthesis within the cells. […] The cells were allowed to adhere to the plates via incubation at 37° C. in 5% CO2 for 12–14 hours. […] Then, 10 μL of the compound was added to the pre-existing 90 μL per well, and incubated further at 37° C. in 5% CO2 for 20 hours. To measure thymidine incorporation, cells were fixed onto the culture wells by slowly adding ¼^th volume of cold 50% TCA into each well (25 μL to each well) and incubated for 1–2 hours at 4° C. Wells were washed 5 times with tap water to remove any free [^3H] thymidine in the media, and air-dried completely at room temperature. Then, 100 μL of scintillation fluid was added to each well and the activity counted using a Wallac Microbeta Counter.

Series [8] concerns PC3 (human prostate carcinoma). The series is described as follows: [3H] thymidine uptake cell proliferation assay, PC3. The settings on record: PC-3, read-out: Cell Proliferation Effects (IC50 (nM)). The series is classed as cell-based.
A further series relates to M3 murine melanoma cells. Put plainly: [3H] thymidine uptake cell proliferation assay, M3. The series is classed as cell-based. The settings on record: Mus musculus, read-out: Cell Proliferation Effects (IC50 (nM)).
The conditions of series [9]: for comparison; cited from earlier work.
Where [10] appears, read: U87, read-out: Cell Proliferation IC50 in nm (starred: tested in U7 cells, not U87), read-out: Cell Proliferation IC50 in nm (starred: tested in U7 cells, not A459).

The structures appear in SMILES notation. Like-named read-outs stand apart in the source and are kept apart here.

Chain of PKB, full-length recombinant bovine protein, alpha form (Q01314 whole entry): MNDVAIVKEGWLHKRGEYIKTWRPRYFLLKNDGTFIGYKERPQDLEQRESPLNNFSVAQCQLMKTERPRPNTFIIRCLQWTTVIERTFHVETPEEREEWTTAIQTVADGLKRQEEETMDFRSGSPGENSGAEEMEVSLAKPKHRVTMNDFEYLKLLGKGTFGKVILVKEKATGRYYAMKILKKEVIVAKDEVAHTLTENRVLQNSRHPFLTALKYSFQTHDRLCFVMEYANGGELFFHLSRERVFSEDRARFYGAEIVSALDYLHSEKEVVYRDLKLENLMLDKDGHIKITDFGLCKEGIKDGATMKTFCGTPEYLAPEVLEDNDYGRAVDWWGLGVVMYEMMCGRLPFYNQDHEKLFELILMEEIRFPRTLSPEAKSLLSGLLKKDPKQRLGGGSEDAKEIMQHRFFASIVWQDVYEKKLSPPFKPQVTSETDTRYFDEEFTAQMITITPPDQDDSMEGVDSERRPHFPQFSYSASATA

`Cc1ccc2nc3c(nc2c1)-c1ccccc1C3=O` [KP-23172-028]: the IC50 in [1] is above 10 µM; in series [2], above 100 µM.
Take `Oc1ncnc2nc3c(nc12)CCc1ccccc1-3` [KP-23172-010]: in series [2], the IC50 is above 100 µM.
Take `O=C1c2ccccc2-c2nc3c(O)cccc3nc21` [KP-23172-001]: the IC50 in [1] was above 10 µM; in series [2], above 100 µM.
Consider `O=C1c2ccccc2-c2nccnc21` [KP-23172-016], for which the IC50 in series [2] is above 100 µM.
For `Cc1ccc2nc3c(nc2c1)C(=O)c1ccccc1-3` [KP-23172-029], the values for the IC50 in [1] and in series [2] were above 10 µM and above 100 µM, respectively.
Take `Cc1cc2nc3c(nc2cc1C)-c1ccccc1CC3` [KP-23172-013]: the IC50 in series [2] was above 100 µM.
Turning to `O=C(c1ccccc1)c1ccc2nc3c(nc2c1)-c1ccccc1C3=O` [KP-23172-003], the IC50 in series [1] is above 10 µM; in series [2], above 100 µM.
For the compound `O=C1c2ccccc2-c2nn3nnnc3nc21` [KP-17483], the IC50 is 300 nM in series [3]; 750 nM in series [4]; 200 nM in series [5]; above 10 µM in [1]; 15 µM in [2]; 750 nM in [6]. In addition, the IC50 came out at 50 nM with DU-145 (human carcinoma); 80 nM with B16-F1 (murine melanoma); 500 nM in series [7]; 50 nM with U-87 (human glioma) (U-87 MG, U87, read-out: Cell Proliferation Effects (IC50 (nM))); 250 nM in series [8]; 30 nM in the series on M3 murine melanoma cells. Besides, the “PKB inhibition in in vitro enzyme assay (in words)” value in series [2] is on record as “found to inhibit PKB”.
Take `c1ccc2c(c1)Cc1nn3nnnc3nc1-2` [KP-23172-008]: the IC50 in [1] is above 10 µM; in [2], above 100 µM.
In the same order, the values of `O=C1c2cc3ccccc3cc2-c2nc3nnnn3nc21` [KP-23172-020] are 0.1 µM and above 100 µM.
Turning to `O=C1c2ccccc2-c2nc3cc4ccccc4cc3nc21` [KP-23172-026], the IC50 in series [2] is above 100 µM.
The same measure, in the same setting: next, `c1ccc2c(c1)CCc1nc3nnnn3nc1-2` [KP-23172-011]: above 100 µM.
For the compound `O=C1c2ccccc2-c2nc3cc(Cl)c(Cl)cc3nc21` [KP-23172-006], the figures for the IC50 in series [1] and in series [2] were above 10 µM and above 100 µM, respectively.
On the same counts, the results for `O=C1c2ccccc2-c2nc3c(O)ncnc3nc21` [KP-23172-009] are above 10 µM and above 100 µM.
On the same counts, the results for `Cc1cc2nc3c(nc2cc1C)-c1ccccc1C3=O` [KP-23172-007] are above 10 µM and above 100 µM.
As to `N#Cc1nc2c(nc1C#N)-c1ccccc1C2=O` [KP-23172-019], the IC50 in [2] was above 100 µM; in the series with U-87 (human glioma) (setting [10]), above 10000 nM.
As to `c1ccc(N/N=C2\C(=N/Nc3ccccc3)Nc3ccccc32)cc1` [KP-23172-025], in series [2], the IC50 was above 100 µM.
Take `Clc1ccc(COC(Cn2ccnc2)c2ccc(Cl)cc2Cl)c(Cl)c1` (centres unmarked) [miconazole]: the “1:1 binding constant (reported in the literature)” value in [9] was 363.
With `N/N=C1/c2ccccc2-c2nc3nnnn3nc21` [KP-23172-023], the IC50 in series [1] is 0.5 µM; in [2], above 100 µM.
On the same counts, the results for `O=C(O)c1ccc2nc3c(nc2c1)-c1ccccc1C3=O` [KP-23172-002] are above 10 µM and above 100 µM.
As for `O=C1c2ccccc2-c2nc3c4ccccc4c4ccccc4c3nc21` [KP-23172-31], in series [2], the IC50 was above 100 µM.
As for `O=C1c2ccccc2-c2nc3c(O)nc(O)nc3nc21` [KP-23172-004], the IC50 in [1] is above 10 µM; in series [2], above 100 µM.
`c1ccc2c(c1)[nH]c1nn3nnnc3nc12` [KP-23172-018]: the values for the IC50 (in series [2]; in the series with U-87 (human glioma) (setting [10])) were above 100 µM and above 10000 nM, respectively.
Consider `COc1ccc2c(c1)-c1nc3nnnn3nc1C2=O` [KP-23172-030], for which the IC50 in [1] came to 0.046 µM; in [2] it was 20 µM.
As for `Cc1cc2nc3c(nc2cc1C)-c1ccccc1/C3=N\Nc1ccccc1` [KP-23172-017], the IC50 in series [2] is above 100 µM.
On to `O=C1c2ccccc2-c2nc3c(nc21)CCCC3` [KP-23172-015], for which the IC50 was above 10 µM in series [1] and above 100 µM in series [2].
As for `O=c1c2ccccc2c2nc3c(=S)nc(S)c3nc12` [KP-23172-022], the figures for the IC50 (in [2]; in the series with U-87 (human glioma) (setting [10])) were above 100 µM and 5000 nM, respectively.
For the compound `c1ccc(N/N=C2/c3ccccc3-c3nc4nnnn4nc32)cc1` [KP-23172-024], the IC50 in [1] was above 10 µM; in [2], above 100 µM.
On the same counts, the results for `O=C(O)c1nc2c(nc1C(=O)O)-c1ccccc1C2=O` [KP-23172-021] are above 10 µM and above 100 µM.
In the same order, the values of `N#CC(=O)N/N=C1/c2ccccc2-c2nc3nnnn3nc21` [KP-23172-027] are 0.5 µM and above 100 µM.
As for `Oc1cccc2nc3c(nc12)CCc1ccccc1-3` [KP-23172-012], the IC50 in series [2] is above 100 µM.
Take `Cn1c(=O)c2nc3c(nc2n(C)c1=O)C(=O)c1ccccc1-3` [KP-23172-005]: the IC50 in series [1] is above 10 µM; in series [2], above 100 µM.
